The structures appear in SMILES notation. Read-outs that look alike come from different tables or passages of the source. Bounds are passed on as bounds.

Data set [1] in a line: Stability in mouse hepatocytes. It is filed as in vitro ADME. On the procedure: (§1) Stability in hepatocytes for select compounds disclosed in the application was evaluated in two species (mouse and human) according to the following procedure. Compounds and positive control samples were dissolved in 100% DMSO at 5 mM. Cryopreserved hepatocytes were thawed and resuspended in Hepatocyte Basal Medium (HBM-Lonza CC-3199) supplemented with CC-4182 (complete hepatocyte culture medium). Test compounds were diluted into cell suspension (1 million cells/ml) from the stock solutions to have a test compound concentration of 5 μM (0.1% DMSO). Incubation was performed in 24-well plates, at 37° C. in a DUBNOFF water bath, under low shaking. Each compound was tested at 6 time points, in duplicates (0, 15, 30, 60, 120 and 240 min). At each time point, an aliquot of 120 μl was taken and transferred to a 96-well deep plate. The reaction was stopped with the addition of one volume of 100% acetonitrile plus 0.1% formic acid and the appropriate internal standard. Then samples were centrifuged at 1100×g for 30 min at +4° C. and supernatants were transferred to a new 96-deepwell plate. Samples were evaporated under N2 and reconstituted in H2O/ACN 0.1% Formic Acid (98:2). Analysis was performed without a calibration curve (Acquity UPLC-Waters; Sciex API4000). Time 0 was obtained adding acetonitrile before addition of the test compound. […] The half-life (t1/2) expressed in hours is derived using Equation 1 as shown in Example 64.

A short description of data set [2]: Stability in mouse plasma. The class given is in vitro ADME. Put shortly: (§2)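 Test compound at 3 μM (0.1% DMSO) was incubated in mouse or human plasma at 37 °C and sampled in duplicate at 0, 10, 20, 30, 40 and 60 min. Reactions were stopped with acetonitrile/formic acid containing internal standard. Remaining parent was measured by UPLC-MS/MS without a calibration curve.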

The subject of data set [3] is PANK2 silenced human neuroblastoma IMR32 cells (PANK2−/−). As to the kind of experiment: Coenzyme A assay in PANK2 silenced cells (LC-MS quantification of free CoA). The class given is cell-based. Particulars: compound added twice (24 h + 24 h), relative to 0.1% DMSO controls. Put shortly:
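Free intracellular CoA was measured by positive-mode LC-MS/MS of 20% TFA extracts, taking 2 μl per 10^6 cells as intracellular volume. Cells were IMR32 with stable lentiviral PANK2 knockdown, dosed twice 24 h apart (48 h total, 0.1% DMSO). Output is fold increase over vehicle.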

The nature of data set [4]: Stability in human plasma. The class given is in vitro ADME. Particulars: 37° C. Put shortly: as §2
Data set [5] is described as follows: Stability in human hepatocytes. The class given is in vitro ADME. Particulars: for half-life at 5 µM: t1/2, Human Hepatocytes; for half-life: 5 μM, 1 million cells/ml, 37° C., human hepatocytes. On the procedure: as §1
Setting [6] is: t1/2, Mouse Hepatocytes, Diastereoisomer A.
Setting [7] is: t1/2, Mouse Hepatocytes, Diastereoisomer B.
[8] abbreviates: human, plasma, Diastereoisomer A (upfield shift in 31P NMR), read-out: t1/2, Human Plasma, Diastereoisomer A (converted).
Where [9] appears, read: human, plasma, Diastereoisomer B, read-out: t1/2, Human Plasma, Diastereoisomer B (converted).
The mark [10] stands for this setting: Diastereoisomer A (upfield shift in 31P NMR), 5 μM, 1 million cells/ml, 37° C., mouse hepatocytes, read-out: t1/2, Mouse Hepatocytes, Diastereoisomer A (converted).
[11] abbreviates: Diastereoisomer A (upfield shift in 31P NMR), 3 μM, 37° C., mouse plasma, read-out: t1/2, Mouse Plasma, Diastereoisomer A.
Setting [12] is: Diastereoisomer A (upfield shift in 31P NMR), read-out: t1/2, Human Plasma, Diastereoisomer A (converted).
[13] abbreviates: Diastereoisomer A (upfield shift in 31P NMR), read-out: t1/2, Human Hepatocytes, Diastereoisomer A (converted).

Take `COC(=O)CCNC(=O)[C@@H]1OP(=O)(OC(C)OC(=O)c2ccccc2)OCC1(C)C` (stereo partly drawn) [compound 98, 1-(((4R)-4-((3-methoxy-3-oxopropyl)carbamoyl)-5,5-dimethyl-2-oxido-1,3,2-dioxaphosphinan-2-yl)oxy)ethyl benzoate]: the half-life at 5 µM in data set [1] (setting [6]), in data set [1] (setting [7]), in data set [5] (Diastereoisomer A) and in data set [5] (Diastereoisomer B) was under 15 min in each case. For the same compound, the half-life at 3 µM in data set [2] (mouse, plasma) was under 9.6 min; in data set [4] (setting [8]), over 60 min; in data set [4] (setting [9]) it was 18 min. Moreover, in data set [2] (mouse, plasma, 3 µM), the “t1/2, Mouse Plasma, Diastereoisomer B” value was under 9.6 min. In addition, the “PANK2−/− CoA (Fold Increase): fold increase in Coenzyme A (CoA) levels relative to controls” value in data set [3] came to 4.01 Fold Increase.

Consider `COC(=O)CCNC(=O)[C@@H]1OP(=O)(N[C@H](C(=O)OC)C(C)C)OCC1(C)C` (stereo partly drawn) [compound 1, (2S)-methyl 2-(((4R)-4-((3-methoxy-3-oxopropyl)carbamoyl)-5,5-dimethyl-2-oxido-1,3,2-dioxaphosphinan-2-yl)amino)-3-methylbutanoate], for which the half-life at 5 µM was 25.8 min in data set [1] (setting [10]) and under 15 min in data set [1] (Diastereoisomer B, 5 μM, 1 million cells/ml, 37° C., mouse hepatocytes, read-out: t1/2, Mouse Hepatocytes, Diastereoisomer B (converted)). The figures for the half-life at 3 µM in data set [2] (setting [11]) and in data set [4] (setting [12]) were under 9.6 min and over 60 min, respectively. In addition, the “t1/2, Mouse Plasma, Diastereoisomer B” value in data set [2] (Diastereoisomer B, 3 μM, 37° C., mouse plasma) was under 9.6 min. In data set [3], the “PANK2−/− CoA (Fold Increase): fold increase in Coenzyme A (CoA) levels relative to controls” value was 1.51 Fold Increase. Moreover, the “t1/2, Human Plasma, Diastereoisomer B” value in data set [4] (Diastereoisomer B, 3 μM) was over 60 min. Moreover, the half-life in data set [5] (setting [13]) is 77.4 min; in data set [5] (Diastereoisomer B, read-out: t1/2, Human Hepatocytes, Diastereoisomer B (converted)), 78.6 min.

In the case of `COC(=O)CCNC(=O)[C@@H]1OP(=O)(N[C@@H](Cc2cccnc2)C(=O)OC)OCC1(C)C` (stereo partly drawn) [compound 25, (2S)-methyl 2-(((4R)-4-((3-methoxy-3-oxopropyl)carbamoyl)-5,5-dimethyl-2-oxido-1,3,2-dioxaphosphinan-2-yl)amino)-3-(pyridin-3-yl)propanoate], the half-life at 5 µM in data set [1] (setting [6]) is 36 min; in data set [5] (Diastereoisomer A), over 240 min. For the same compound, the half-life at 3 µM in data set [2] (mouse, plasma) was under 9.6 min; in data set [4] (setting [8]), over 60 min. For the same compound, the “PANK2−/− CoA (Fold Increase): fold increase in Coenzyme A (CoA) levels relative to controls” value in data set [3] stood at 0.95 Fold Increase.

`COC(=O)CCNC(=O)[C@@H]1OP(=O)(N[C@@H](C)C(=O)OC[C@H]2CCC(=O)N2)OCC1(C)C` (stereo partly drawn) [compound 23, methyl 3-((4R)-5,5-dimethyl-2-oxido-2-(((S)-1-oxo-1-(((R)-5-oxopyrrolidin-2-yl)methoxy)propan-2-yl)amino)-1,3,2-dioxaphosphinane-4-carboxamido)propanoate]: the half-life at 5 µM in data set [1] (setting [6]) was 70.8 min; in data set [1] (setting [7]), 33 min; in data set [5] (Diastereoisomer A), over 240 min; in data set [5] (Diastereoisomer B), over 240 min. Besides, the half-life at 3 µM was under 9.6 min in data set [2] (mouse, plasma); under 9.6 min in data set [4] (setting [8]); 57.6 min in data set [4] (setting [9]). Besides, the “t1/2, Mouse Plasma, Diastereoisomer B” value in data set [2] (mouse, plasma, 3 µM) is under 9.6 min. Also, in data set [3], the “PANK2−/− CoA (Fold Increase): fold increase in Coenzyme A (CoA) levels relative to controls” value was 2.08 Fold Increase.

Consider `CC(C)(C)C(=O)OCOP1(=O)OCC(C)(C)[C@H](C(=O)NCCC(=O)OCc2ccncc2)O1` (stereo in doubt) [Compound No. 71, (((2S,4R)-5,5-dimethyl-2-oxido-4-((3-oxo-3-(pyridin-4-ylmethoxy)propyl)carbamoyl)-1,3,2-dioxaphosphinan-2-yl)oxy)methyl pivalate], for which the half-life at 5 µM in data set [1] (setting [6]), in data set [1] (setting [7]), in data set [5] (Diastereoisomer A) and in data set [5] (Diastereoisomer B) was under 15 min in each case. Besides, the half-life at 3 µM in data set [2] (mouse, plasma) is under 9.6 min; in data set [4] (setting [8]), over 60 min; in data set [4] (setting [9]), under 9.6 min. The “t1/2, Mouse Plasma, Diastereoisomer B” value in data set [2] (mouse, plasma, 3 µM) was under 9.6 min. Also, the “PANK2−/− CoA (Fold Increase): fold increase in Coenzyme A (CoA) levels relative to controls” value in data set [3] came to 39.37 Fold Increase.

On to `CC(C)(C)C(=O)OCO[P@@]1(=O)OCC(C)(C)[C@H](C(=O)NCCC(=O)OCCS(C)(=O)=O)O1` (single isomer, unassigned) [Compound No. 78], for which the half-life at 5 µM in data set [1] (setting [6]) is under 15 min; in data set [1] (setting [7]), under 15 min; in data set [5] (Diastereoisomer A), 26.4 min; in data set [5] (Diastereoisomer B), 19.8 min. Besides, the half-life at 3 µM in data set [2] (mouse, plasma) was under 9.6 min; in data set [4] (setting [8]), over 60 min; in data set [4] (setting [9]), under 9.6 min. Besides, in data set [2] (mouse, plasma, 3 µM), the “t1/2, Mouse Plasma, Diastereoisomer B” value was under 9.6 min. The “PANK2−/− CoA (Fold Increase): fold increase in Coenzyme A (CoA) levels relative to controls” value in data set [3] came out at 120.6 Fold Increase.

Take `COC(=O)CCNC(=O)[C@@H]1OP(=O)(N[C@@H](Cc2ccc(OC(C)(C)C)cc2)C(=O)OC(C)(C)C)OCC1(C)C` (stereo partly drawn) [compound 15]: the half-life at 5 µM in data set [1] (setting [6]) is under 15 min; in data set [1] (setting [7]), under 15 min; in data set [5] (Diastereoisomer A), 18.6 min; in data set [5] (Diastereoisomer B), under 15 min. Besides, the half-life at 3 µM is under 9.6 min in data set [2] (mouse, plasma); over 60 min in data set [4] (setting [8]); over 60 min in data set [4] (setting [9]). The “t1/2, Mouse Plasma, Diastereoisomer B” value in data set [2] (mouse, plasma, 3 µM) was under 9.6 min. Moreover, the “PANK2−/− CoA (Fold Increase): fold increase in Coenzyme A (CoA) levels relative to controls” value in data set [3] came to 0.5 Fold Increase.

Take `COC(=O)CCNC(=O)[C@@H]1OP(=O)(N[C@H](C(=O)OC(C)(C)C)C2CCCCC2)OCC1(C)C` (stereo partly drawn) [compound 14, methyl 3-((4R)-2-(((S)-2-(tert-butoxy)-1-cyclohexyl-2-oxoethyl)amino)-5,5-dimethyl-2-oxido-1,3,2-dioxaphosphinane-4-carboxamido)propanoate]: the half-life at 5 µM in data set [1] (setting [6]) is under 15 min; in data set [1] (setting [7]) it was under 15 min; in data set [5] (Diastereoisomer A) it was 17.4 min; in data set [5] (Diastereoisomer B), under 15 min. Further, the half-life at 3 µM in data set [2] (mouse, plasma) is under 9.6 min; in data set [4] (setting [8]), over 60 min; in data set [4] (setting [9]) it was over 60 min. Besides, the “t1/2, Mouse Plasma, Diastereoisomer B” value in data set [2] (mouse, plasma, 3 µM) is under 9.6 min. In addition, in data set [3], the “PANK2−/− CoA (Fold Increase): fold increase in Coenzyme A (CoA) levels relative to controls” value worked out at 1.59 Fold Increase.

On to `COC(=O)CCNC(=O)[C@@H]1OP(=O)(N[C@@H](Cc2cncs2)C(=O)OCc2ccccc2)OCC1(C)C` (stereo partly drawn) [compound 29, benzyl (2S)-2-(((4R)-4-((3-methoxy-3-oxopropyl)carbamoyl)-5,5-dimethyl-2-oxido-1,3,2-dioxaphosphinan-2-yl)amino)-3-(thiazol-5-yl)propanoate], for which the half-life at 5 µM in data set [1] (setting [6]) was under 15 min; in data set [1] (setting [7]) it was under 15 min; in data set [5] (Diastereoisomer A), 36 min; in data set [5] (Diastereoisomer B), 15.6 min. In addition, the half-life at 3 µM in data set [2] (mouse, plasma) is under 9.6 min; in data set [4] (setting [8]) it was over 60 min; in data set [4] (setting [9]) it was over 60 min. Further, the “t1/2, Mouse Plasma, Diastereoisomer B” value in data set [2] (mouse, plasma, 3 µM) was under 9.6 min. In data set [3], the “PANK2−/− CoA (Fold Increase): fold increase in Coenzyme A (CoA) levels relative to controls” value is recorded as 1.17 Fold Increase.

In the case of `COC(=O)CCNC(=O)[C@@H]1OP(=O)(N[C@@H](Cc2ccccc2)C(=O)OC(C)(C)C)OCC1(C)C` (stereo partly drawn) [compound 4], in data set [1] (setting [10]), the half-life at 5 µM is 34.8 min. Besides, the half-life at 3 µM in data set [2] (setting [11]) is under 9.6 min; in data set [4] (setting [12]), over 60 min. In addition, the “PANK2−/− CoA (Fold Increase): fold increase in Coenzyme A (CoA) levels relative to controls” value in data set [3] came to 1.2 Fold Increase. In addition, in data set [5] (setting [13]), the half-life is 26.4 min.

Regarding `COC(=O)CCNC(=O)[C@@H]1O[P@@](=O)(OCOC(=O)C(C)(C)C)OCC1(C)C` (single isomer, unassigned) [Compound No. 90], the half-life at 5 µM in data set [1] (setting [6]) and in data set [5] (Diastereoisomer A) was under 15 min in each case. Besides, the half-life at 3 µM is under 9.6 min in data set [2] (mouse, plasma) and 45.6 min in data set [4] (setting [8]). In addition, the “PANK2−/− CoA (Fold Increase): fold increase in Coenzyme A (CoA) levels relative to controls” value in data set [3] is reported as 286.0 Fold Increase.

Values taken from patent US10364263B2, “Cyclic phosphates and cyclic phosphoramidates for the treatment of neurologic disorders” (Retrophin, Inc., priority 2015, dated 2019).
